Experimental findings from EP0175180A1, “Histargin-related compounds, a process for their preparation and their use as medicaments” (MICROBIAL CHEMISTRY RESEARCH FOUNDATION, priority 1984, dated 1986) are described below.

Data set [1] has as its target T1, carboxypeptidase B (Sus scrofa, UniProt P09955).
T1 construct: carboxypeptidase B purified from swine pancreas; purchased C; F. Boehringer & Soehne GmbH, Mannheim; host or cells: swine pancreas
T1 sequence (P09955 111-416): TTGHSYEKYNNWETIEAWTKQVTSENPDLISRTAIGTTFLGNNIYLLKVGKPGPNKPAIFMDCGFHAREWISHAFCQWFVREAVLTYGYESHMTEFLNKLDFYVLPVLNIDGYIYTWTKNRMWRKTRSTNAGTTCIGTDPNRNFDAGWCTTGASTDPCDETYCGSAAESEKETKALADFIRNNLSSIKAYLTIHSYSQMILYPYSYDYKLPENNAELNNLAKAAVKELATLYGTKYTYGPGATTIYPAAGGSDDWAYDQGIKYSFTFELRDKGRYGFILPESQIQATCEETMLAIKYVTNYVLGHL
The experiment in a line: Inhibition of the action of carboxypeptidase B. The data set is classed as biochemical. The conditions noted are these: carboxypeptidase B purified from swine pancreas, 37°C, 30 minutes, pH 8.0; read-out: CP-B inhibition IC50 (converted). On the procedure: The inhibition of the action of carboxypeptidase B was determined by an improved version of the method for determination of the activity of angiotensin converting enzyme described in M. Hayakari et al., Analytical Biochemistry, 84, 361 - 369 (1978). The method proceeds as follows: A mixture of 0.05 mℓ of 0.05 M fibril-L-lysine (prepared by Tanpakushitsu Kenkyu Shoreikai) with 0.25 mℓ of 0.05 M Tris-HCℓ buffer solution (pH 8.0) and 0.15 mℓ of a solution containing a test compound was heated at 37°C for 3 minutes. To the heated solution, 0.05 mℓ of an aqueous solution containing 1 ug/mℓ of carboxypeptidase B purified from swine pancreas (product of C. F. Boehringer G Sohne GmbH, Mannheim) and 1 mg/mℓ of bovine albumin was added, and the mixture was subjected to reaction at 37°C for 30 minutes. The reaction was quenched by adding 0.03 mℓ of 1 N caustic soda. Fifteen minutes later, 2 mℓ of 0.05 M sodium phosphate buffer solution (pH 7.2) was added to the reaction mixture, and color reaction was performed by addition of 2 mℓ of 1% cyanuric chloride in methyl cellosolve. The mixture was left at room temperature for 15 minutes and the absorbance (a) at 382 nm was measured. The absorbance (b) of a control containing no test compound was also measured by repeating the same procedure. Blank tests were also conducted to determine the corresponding absorbances (a') and (b').
In each blank teat, the color reaction was performed by adding the enzyme solution after caustic soda so that no enzymatic reaction would take place. The percent inhibition of the action of carboxypeptidase B was calculated by the formula: [formula]

Data set [2] deals with T2, carboxypeptidase A (Bos taurus, UniProt P00730).
T2 construct: carboxypeptidase A purified from bovine pancreas; purchased Sigma Chemical Co; host or cells: bovine pancreas
T2 sequence (P00730 111-419): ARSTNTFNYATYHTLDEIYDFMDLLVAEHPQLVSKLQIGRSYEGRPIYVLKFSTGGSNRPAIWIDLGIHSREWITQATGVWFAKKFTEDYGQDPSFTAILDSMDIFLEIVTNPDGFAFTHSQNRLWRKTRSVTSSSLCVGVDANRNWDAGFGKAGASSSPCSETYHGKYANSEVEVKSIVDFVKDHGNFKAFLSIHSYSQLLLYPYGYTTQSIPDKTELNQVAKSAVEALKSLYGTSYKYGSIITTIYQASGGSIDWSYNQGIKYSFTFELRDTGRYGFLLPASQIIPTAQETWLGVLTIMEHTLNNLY
The experiment in a line: Inhibition of the action of carboxypeptidase A. The data set is classed as biochemical. The conditions noted are these: carboxypeptidase A purified from bovine pancreas, 37°C, 30 minutes, pH 7.5; read-out: CP-A inhibition IC50 (converted). On the procedure: (2) Inhibition of the action of carboxypeptidase A The inhibition of the action of carboxypeptidase A was determined by the method described in T. Tanaka et al., The Journal of Antibiotics, 37, 682 - 684 (1984). The method proceeds as follows: A mixture of 0.05 mℓ of 0.01 M fibril-L-phenylalanine (product of Sigma Chemical Co.) with 0.25 mℓ of 0.05 M Tris-HCℓ buffer solution (pH 7.5) containing 0.9 M NaCℓ. and 0.15 mℓ of a solution containing a teat compound was heated at 37°C for 3 minutes. To the heated solution, 0.05 mℓ of a diluted aqueous solution of carboxypeptidase A purified from bovine pancreas (product of Sigma Chemical Co.) which also contained 1 mg/mℓ of purified bovine albumin was added and the mixture was enbjected to reaction at 37°C for 30 minutes. The reaction was quenched by adding 0.03 mℓ of 1 M caustic soda. Fifteen minutes later, 2 mℓ of 0.06 M sodium phosphate buffer solution (pH 7.2) was added to the reaction mixture, and color reaction was performed by addition of 2 mℓ of 1% cyanuric chloride in methyl cellosolve. The mixture was left at room temperature for 15 minutes and the absorbance (a) at 382 nm was measured. The absorbance (b) of a control containing no test compound was also measured by repeating the same procedure. Blank tests were also conducted to determine the corresponding absorbances (a') and (b'). In each blank test, the color reaction was performed by adding the enzyme solution after caustic soda so that no enzymatic reaction would take place. The percent inhibition of the action of carboxypeptidase A was calculated by the formula: [formula]

Data set [3] addresses T3, angiotensin converting enzyme (Bos taurus, UniProt P12820).
T3 construct: angiotensin converting enzyme partially purified from a bovine lung; from tissue; host or cells: bovine lung
T3 sequence (P12820 29-1306): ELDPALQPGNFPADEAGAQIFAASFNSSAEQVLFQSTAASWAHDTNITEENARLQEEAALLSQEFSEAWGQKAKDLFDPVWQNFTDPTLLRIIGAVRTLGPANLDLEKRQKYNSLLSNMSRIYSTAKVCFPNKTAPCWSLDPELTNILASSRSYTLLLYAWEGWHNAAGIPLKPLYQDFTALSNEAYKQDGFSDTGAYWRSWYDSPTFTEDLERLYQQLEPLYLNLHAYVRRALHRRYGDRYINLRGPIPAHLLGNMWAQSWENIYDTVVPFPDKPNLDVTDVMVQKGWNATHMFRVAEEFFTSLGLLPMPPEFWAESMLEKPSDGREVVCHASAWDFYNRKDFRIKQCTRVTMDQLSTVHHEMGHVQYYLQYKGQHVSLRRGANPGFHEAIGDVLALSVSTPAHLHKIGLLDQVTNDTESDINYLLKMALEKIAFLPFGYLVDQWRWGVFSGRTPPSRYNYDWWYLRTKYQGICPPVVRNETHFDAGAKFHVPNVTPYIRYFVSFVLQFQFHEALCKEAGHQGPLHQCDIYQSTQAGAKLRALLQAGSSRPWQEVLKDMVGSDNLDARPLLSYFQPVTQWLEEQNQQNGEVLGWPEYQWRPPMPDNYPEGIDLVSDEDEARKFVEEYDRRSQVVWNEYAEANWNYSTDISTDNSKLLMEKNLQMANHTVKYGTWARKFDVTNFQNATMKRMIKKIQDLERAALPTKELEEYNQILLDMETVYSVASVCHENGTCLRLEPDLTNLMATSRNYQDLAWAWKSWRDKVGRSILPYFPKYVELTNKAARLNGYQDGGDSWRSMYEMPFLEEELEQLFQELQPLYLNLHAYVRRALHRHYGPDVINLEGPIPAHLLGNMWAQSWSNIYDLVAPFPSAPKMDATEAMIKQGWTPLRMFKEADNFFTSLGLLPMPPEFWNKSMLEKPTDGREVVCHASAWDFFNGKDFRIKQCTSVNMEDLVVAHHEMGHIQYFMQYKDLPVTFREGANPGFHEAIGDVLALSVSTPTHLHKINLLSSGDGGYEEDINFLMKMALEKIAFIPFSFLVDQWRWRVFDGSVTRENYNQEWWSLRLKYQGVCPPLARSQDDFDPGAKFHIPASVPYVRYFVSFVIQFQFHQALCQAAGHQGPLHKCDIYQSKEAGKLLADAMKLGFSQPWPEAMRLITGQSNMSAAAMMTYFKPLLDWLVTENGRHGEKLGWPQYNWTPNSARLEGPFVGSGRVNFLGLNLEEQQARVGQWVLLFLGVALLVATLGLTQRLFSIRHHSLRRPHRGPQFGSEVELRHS
In words: Inhibition of the action of angiotensin converting enzyme. The data set is classed as biochemical. To be noted: enzyme partially purified from a bovine lung, 37°C, 30 minutes; read-out: IC50 (50% inhibition concentration) (converted). As to the method:
The inhibition of the action of angiotensin converting enzyme was determined by an inproved version of the method for determination of the activity of angiotensin converting enzyme described in M. Hayakari et al., Analytical Biochemistry, 84, 361 - 369 (1978). The method proceeds as follows: Substrate fibril-L-histidyl-L-leucine was dissolved at a concentration of 5 mg/mt in Tris-HCℓ buffer solution (0.5 M, pH 8.0) containing 0.3 M NaCℓ. A mixture of this solution (0.05 mℓ) and 0.40 mℓ of a solution containing a test compound was heated at 37°C for 3 minutes. To the heated solution, 0.05 ml of a solution containing angiotensin converting enzyme partially purified from a bovine lung was added, and the mixture was subjected to reaction at 37°C for 30 minutes. The reaction was quenched by adding 0.03 mℓ of 1 N caustic soda. […] The mixture was left at room temperature for 15 minutes and the absorbance (a) at 382 nm was measured. The absorbance (b) of a control containing no test compound was also measured by repeating the same procedure. Blank tests were also conducted to determine the corresponding absorbances (a') and (b'). […] The percent inhibition of the action of angiotensin converting enzyme was calculated by the formula: [formula]

The test system of data set [4] is rats. In words: Acute toxicity test by intraperitoneal administration. The data set is classed as in vivo. The source says:
Each of the compounds in accordance with the present invention has low toxicity and can safely be used as a medicine. The results of an acute toxicity test conducted by intraperitoneal administration of rats with compound Nos. la to 5a are summarized in Table 5.

Where [5] appears, read: intraperitoneal administration, rats, dose stated in each result.

`O=C(O)[C@H](Cc1c[nH]cn1)NCCN[C@@H](Cc1c[nH]cn1)C(=O)O` [1a, L-His-C2-L-His]: the IC50 in data set [1] is 178 µM; in data set [2] it was above 595 µM; in data set [3], 2.08 µM. Further, the “Test results (acute toxicity)” value in data set [4] (rat, in vivo, ip) is “No toxicity observed upon administration of 400 mg/kg”.
For the compound `O=C(O)[C@H](Cc1ccccc1)NCCN[C@@H](Cc1c[nH]cn1)C(=O)O` [2a, L-His-C2-L-Phe], the IC50 in data set [1] was 185 µM; in data set [2] it was 24.3 µM. The “Test results (acute toxicity)” value in data set [4] (setting [5]) is given as “No toxicity observed upon administration of 100 mg/kg”.
For `NCCCC[C@H](NCCN[C@@H](Cc1c[nH]cn1)C(=O)O)C(=O)O` [3a, L-His-C2-L-Lys], in that order: above 611 µM, above 611 µM and “No toxicity observed upon administration of 400 mg/kg”.
For `O=C(O)[C@H](Cc1c[nH]cn1)NCCN1CCC[C@H]1C(=O)O` [4a, L-His-C2-L-Pro], in that order: above 675 µM, above 675 µM and “No toxicity observed upon administration of 400 mg/kg”.
Turning to `O=C(O)C[C@H](NCCN[C@@H](Cc1c[nH]cn1)C(=O)O)C(=O)O` [5a, L-His-C2-L-Asp], the figures for the IC50 in data set [1], in data set [2] and in data set [3] were above 636 µM, above 636 µM and 1.59 µM, respectively. For the same compound, the “Test results (acute toxicity)” value in data set [4] (rat, in vivo, ip) is “No toxicity observed upon administration of 400 mg/kg”.
Take `NCCC[C@H](NCCN[C@@H](Cc1c[nH]cn1)C(=O)O)C(=O)O` [6a, L-His-C2-L-Orn]: the IC50 was 357 µM in data set [1] and above 638 µM in data set [2].
On the same counts, the results for `CCOC(=O)[C@H](Cc1ccccc1)NCCN[C@@H](Cc1c[nH]cn1)C(=O)O` [7a, L-His-C2-L-Phe-OEt] are above 534 µM and 390 µM.
